# Source: PubChem BioAssay (NCI)
#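 Cultured in 96-well plates, cells were exposed to test compound for 48 hours across five concentrations. GI50 = concentration required for 50% inhibition of growth. The concentration for full growth arrest is given as TGI.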 *1 amine or outer side, *2 acyl side, *3 side chain or, on linkers, in order; H or OH if unused. Where a SMILES comes first, the peptide text is derived from it. [ ]: non-standard residue; d: D form. ξ: configuration not given here. X21 = CC[C@@H](C)C(N[*:1])C(=O)[*:2]; ξR = N=C(N)NCCCC(N)C(=O)O; ξI = CCC(C)C(N)C(=O)O; ξL = CC(C)CC(N)C(=O)O; ξK = NCCCCC(N)C(=O)O; ξV = CC(C)C(N)C(=O)O; ξA = CC(N)C(=O)O
# Columns and labels:
# Test in all cases: growth of human tumour cells (NCI), 48 h
# [1] = test system: EKVX NSCLC
# [2] = test system: HT29 colon
# [3] = test system: M14 melanoma
# [4] = test system: SF-268 CNS
# [5] = test system: CCRF-CEM leukemia
# [6] = test system: SK-MEL-5 melanoma
# [7] = test system: NCI-H23 lung
# [8] = test system: SF-295 CNS
# [9] = test system: ACHN renal
# [10] = test system: OVCAR-5 ovarian
SMILES,TGI [1] [µM],TGI [2] [µM],TGI [3] [µM],TGI [4] [µM],TGI [5] [µM],TGI [6] [µM],TGI [7] [µM],TGI [8] [µM],TGI [9] [µM],TGI [10] [µM],GI50 [1] [µM],GI50 [2] [µM],GI50 [3] [µM],GI50 [4] [µM],GI50 [5] [µM],GI50 [6] [µM],GI50 [7] [µM],GI50 [8] [µM],GI50 [9] [µM],GI50 [10] [µM]
COc1ccc(OC)c2c(=S)c3ccccc3[nH]c12,> 100,> 100,> 100,> 100,> 86.1,70.1,> 100,> 100,> 100,> 100,–,–,–,–,–,–,–,–,–,–
CCC(C)C1NC(=O)C(CC(C)C)NC(=O)C(C)NC(=O)C(C(C)C)NC(=O)C(CCCCN)NC(=O)C(CC(C)C)NC(=O)C(C(C)C)NC(=O)[C@H](C)NC(=O)C(C(C)CC)NC(=O)C(CCCN=C(N)N)NC(=O)C(CCCCN)NC(=O)C(CCCN=C(N)N)NC(=O)C(CCCCN)NC(=O)C([C@H](C)CC)NC(=O)C(CCCCN)NC1=O (stereo not given in full) (cyclo(A[ξV][ξL][ξK][ξV][ξA][ξL][ξI][ξK][X21][ξK][ξR][ξK][ξR][ξI])),2.9,10.3,3.13,5.12,5.07,1.87,2.22,2.52,4.5,7.16,0.61,2.59,1.5,1.76,1.43,0.6,0.43,1.04,1.79,1.94
CN(C)CCCn1c2nc(=O)[nH]c(=O)c-2nc2cc(Cl)c(Cl)cc21,28.5,11.9,13,17.6,18.7,3.12,23.5,–,11.8,30.4,13.8,2.13,3.68,5.31,3.81,1.65,8.04,–,3.46,14.2
Cn1cnc([N+](=O)[O-])c1Sc1nnnn1-c1ccccc1,29.6,31.9,23.7,39.4,7.12,29.9,34.7,39.7,27,31.7,–,–,–,–,–,–,–,–,–,–
CCOC(=O)c1cc(C(=O)c2cc(OC)c(OC)c(OC)c2)n2ccccc12,> 100,> 100,0.388,> 100,> 100,> 100,> 100,14.6,> 100,> 100,0.342,0.0425,0.0377,1.12,0.106,0.0409,0.34,0.0558,10.1,0.813
NC(CC1=CCC=CC1)C(=O)O (stereo not given),> 100,> 100,> 100,> 100,> 100,> 100,> 100,> 100,> 100,> 100,–,–,–,–,–,–,–,–,–,–
S=c1nc(N2CCCCC2)ss1,55.8,79.6,47.7,49.5,46.4,30.5,> 100,81.4,67,> 100,–,–,–,–,–,–,–,–,–,–
Cc1cccc(C)c1NC(=O)CCc1n[nH]c(=S)o1,> 100,> 100,> 100,> 100,> 100,> 100,> 100,> 100,> 100,> 100,–,–,–,–,–,–,–,–,–,–
CCNCCCn1c2c(c3ccc([N+](=O)[O-])cc3c1=O)C(=O)c1cc(OC)cnc1-2,1.27,1.25,0.437,1.5,1.23,0.234,0.323,0.496,0.144,0.675,0.204,0.0579,0.0408,0.0527,0.0366,0.078,0.0436,0.0421,0.0313,0.176
Cc1cc(=O)oc2cc(OS(C)(=O)=O)ccc12,> 100,> 100,> 100,> 100,> 100,> 100,> 100,> 100,> 100,> 100,–,–,–,–,–,–,–,–,–,–
C=CCn1cc(C(=O)NC(=O)NCCCCCOC(=O)CCCCCCCCCCC(=O)OCCCCCNC(=O)NC(=O)c2cn(CC=C)c(=O)n(C)c2=O)c(=O)n(C)c1=O,> 100,> 100,> 100,> 100,> 100,> 100,> 100,–,> 100,> 100,–,–,–,–,–,–,–,–,–,–
N#Cc1c(N)nc(N2CCOCC2)c(C#N)c1-c1ccccc1Cl,> 100,> 100,> 100,85.7,> 100,> 100,> 100,> 100,–,> 100,37.6,57,60.9,25.4,45,32.4,37.7,38.5,–,26.4
